“Also recorded” adds a separate entry of the source.
Molecular target: T1, asPARP-1 in nuclei from Parp1−/− MEFs (Mus musculus, UniProt P11103, L876A)
T1 construct: expressed in transfected cells; host or cells: Parp1-/- mouse embryonic fibroblasts, lentiviral transduction, isolated nuclei
Experiment: 8-Bu(3-yne)T-ADP-ribosylation reactions in intact nuclei
Type: cell-based
Conditions: Parp1−/− MEF nuclei, 250 μM analog, 30 minutes at 25° C.
Description: 50% confluent MEF cells expressing asPARP-1 were harvested with cold PBS using a rubber policeman and collected by centrifugation for 5 minutes at 800 RCF at 4° C. Cells were resuspended for 10 minutes to facilitate cell swelling in Nuclear Isolation Buffer (10 mM HEPES, pH 8.0, 2 mM MgCl2, 3 mM CaCl2, 300 mM Sucrose, 1 mM DTT, 1 mM PMSF, 4 mM Benzamidine, 1 μM Aprotinin, 100 μM Leupeptin, 1 μM Pepstatin A, and 1 in 250 parts SIGMA Phosphatase Inhibitor Cocktails 2 and 3). Nuclei were released from cells by addition of NP-40 to 0.65% under medium vortex and immediately collected by centrifugation at 10,000 RCF for 1 minute at 4° C. […]
Following 8-Bu(3-yne)T-ADP-ribosylation in intact nuclei from MEFs as described above, the nuclei were washed once with Nuclei Click Reaction Buffer (10 mM HEPES, pH 8.0, 10 mM NaCl, 10 mM spermidine, 0.1% NP-40, with freshly added protease inhibitors) and then clicked twice to Alexa Fluor 488 by the sequential addition of 100 μM azido-Alexa Fluor 488 (Life Technologies), a pre-formed complex of CuSO4:THPTA (1.0 mM:5.0 mM), and 5 mM sodium ascorbate. […] Fluorescence was visualized via confocal microscopy using a Leica TCS SP2 Confocal Microscope.

T1 sequence (P11103 whole entry L876A): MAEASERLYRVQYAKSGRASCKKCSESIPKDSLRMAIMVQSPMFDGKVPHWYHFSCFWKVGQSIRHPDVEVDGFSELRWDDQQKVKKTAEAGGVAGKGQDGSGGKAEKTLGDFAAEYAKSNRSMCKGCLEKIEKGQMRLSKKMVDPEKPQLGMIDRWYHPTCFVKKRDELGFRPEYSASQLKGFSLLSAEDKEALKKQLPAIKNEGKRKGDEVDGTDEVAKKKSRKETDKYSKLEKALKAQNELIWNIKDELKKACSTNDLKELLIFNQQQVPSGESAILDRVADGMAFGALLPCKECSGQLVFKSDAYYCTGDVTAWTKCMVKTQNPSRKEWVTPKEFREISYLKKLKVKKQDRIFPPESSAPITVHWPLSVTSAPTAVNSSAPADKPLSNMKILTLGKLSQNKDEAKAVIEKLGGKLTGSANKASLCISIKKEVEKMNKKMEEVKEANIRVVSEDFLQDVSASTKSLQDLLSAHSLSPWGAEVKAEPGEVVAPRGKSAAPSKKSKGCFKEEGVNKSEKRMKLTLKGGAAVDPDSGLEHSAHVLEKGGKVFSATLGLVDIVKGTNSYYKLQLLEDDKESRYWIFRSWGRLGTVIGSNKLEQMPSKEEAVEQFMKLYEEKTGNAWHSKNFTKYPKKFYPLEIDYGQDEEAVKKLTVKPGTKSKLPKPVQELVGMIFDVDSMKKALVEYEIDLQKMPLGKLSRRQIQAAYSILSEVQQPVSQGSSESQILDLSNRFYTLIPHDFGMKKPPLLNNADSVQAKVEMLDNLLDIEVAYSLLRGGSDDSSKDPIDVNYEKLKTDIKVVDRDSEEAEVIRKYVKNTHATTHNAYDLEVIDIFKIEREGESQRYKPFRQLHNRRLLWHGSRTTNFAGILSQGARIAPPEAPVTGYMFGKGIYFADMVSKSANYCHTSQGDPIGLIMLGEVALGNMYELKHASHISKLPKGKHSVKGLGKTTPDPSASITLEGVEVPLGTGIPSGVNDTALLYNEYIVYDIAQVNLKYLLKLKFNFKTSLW

C#CCCSc1nc2c(N)ncnc2n1[C@@H]1O[C@H](COP(=O)(O)OP(=O)(O)OC[C@H]2O[C@@H]([n+]3cccc(C(N)=O)c3)C(O)C2O)[C@H](O)C1O (stereo partly shown) [8-Bu(3-yne)T-NAD^+]
ADP-ribosylation in intact nuclei expressing asPARP-1: catalytically active; also recorded: clearly evident
